Reference: patent US12351556B2, “Pyridin-2(1H)one derivatives, their preparation and their use for the treatment of pain” (INSTITUT NATIONAL DE LA SANTE ET DE LA RECHERCHE MEDICALE …, priority 2019, dated 2025)
“Also recorded” adds a separate entry of the source. Where two headings read alike, the source gives them in different places.

Legend:
p38α MAPK = p38α MAPK (Homo sapiens (Human), UniProt Q16539); assay: p38 alpha IC50; type: biochemical
Description: (§1) Studies were undertaken to identify the possible biological target(s) of compound 69. The activation in neurons of PK such as PKCγ, ERK or p38 MAPK can contribute to pain hypersensitivity. Therefore, it was decided to screen compound 69 toward a panel of 50 PKs that provide a representative sampling of the human kinome (FIG. 3, Table 3) (Biochem. J. 2007, 408, 297-315). In this panel, p38α MAPK was identified as the privileged target, with 19% of kinase residual activity at 10 μM compound concentration.
(§2) The selectivity of compound 69 was evaluated at 1 μM toward another panel containing all four p38 MAPK isoforms, ERK1, ERK2 as well as other protein kinases close to p38α MAPK in the kinome phylogenetic tree (FIG. 4, Table 4). […] Its IC50 toward p38α MAPK was determined, showing a value in the micromolar range (IC50=3.0±0.1 μM).

[1] = tested on: inflammatory MA (face CFA model); assay: Face Complete Freund's Adjuvant (CFA) model of inflammatory mechanical allodynia; type: in vivo; settings: rat, intracisternal 5 μL at 100 μM
Description: FIG. 1 illustrates the results obtained by the intracisternal application of compounds 19-24, 66-72 and 74-82. These compounds prevent face MA in a rat model of inflammatory pain (Complete Freund's Adjuvant (CFA), n=4-6 rats for each compound). For this assay, compounds (5 μL at 100 μM) or control vehicle were intra-cisternally administred 30 min before CFA injection.
Face Complete Freund's Adjuvant (CFA) Model.
CFA (Becton Dickinson) was dissolved in saline solution containing Tween 80 and paraffin oil and conserved at 4° C. For the behavioral tests, animals were briefly (<2 min) anesthetized using a mask with 2% isoflurane and received a subcutaneous injection of 25 μL of CFA (2.5 mg/kg) solution into the right vibrissa pad using a 27 Ga needle coupled to a 25 μL Hamilton syringe, as described previously. After injection, animals were awakened from anesthesia and placed in the behavioral experimental room, followed by a 120 min mechanical testing period.
Intracisternal Injection:
For investigating the effects of synthetized compounds upon mechanical allodynia, animals were briefly (<2 min) anesthetized using a mask with 2% isoflurane and received an intracisternal injection of 5 μL of compound (100 μM) or vehicle alone (saline+1% DMSO) using a 10 μL Hamilton syringe. After recovery (<2 min), rats were placed in an observation field (0.6×0.6 m square) under red light for a period test. 6-g von Frey filament was gently applied every 15 or 30 min onto the orofacial region by a first experimenter. The behavioral responses were observed and quantified by a second experimenter (see below).
Behavioral Responses to Normally Innocuous (6-g Von Frey Filament) Mechanical Stimulation.
The behavioral responses procedure was previously developed by Vos et al. 1994. A rat's response to mechanical stimulation consisted of one or more of the following elements: (1) detection, rat turn head toward stimulus; (2) withdrawal reaction, rat pull paw away or turn head away or pull it briskly backward when stimulation is applied (a withdrawal reaction is assumed to include a detection element preceding the head withdrawal and therefore consists of two responses elements); (3) escape/attack, rats avoid further contact with the stimulus, either passively by moving their bodies away from the stimulus, or actively by attacking the tip of the […]; (4) asymmetric grooming, rats display an uninterrupted series of at least three wash strokes directed to the stimulated area.
The in vivo efficacy of some compounds was evaluated on a rat model of inflammatory MA (face CFA model; Alba-Delgado et al J. Neurosci. 2018, 38, 10489-10504) (FIG. 1). After receiving a subcutaneous injection of 25 μL of CFA (2.5 mg/kg) into the right vibrissa pad, rats develop a MA that lasts days. […] In this model of inflammatory MA, MA was suppressed in compound 69 treated rats, in comparison to animals treated with vehicle (FIG. 2A).

p38b MAPK = p38b MAPK (Homo sapiens (Human), UniProt Q15759); assay: ICKP protein kinase panel screening; type: biochemical; settings: duplicate assays, read-out: mean % residual activity
Description: (§3) FIG. 4 illustrates the studies carried out for compounds 67 and 69. Compounds 67 and 69 (FIG. 4B) were evaluated at the International Center For Kinase Profiling (ICKP, Dundee, Scotland) toward a panel of 13 protein kinases. The results (FIG. 4A) were expressed as the mean percentage of residual activity at 1 μM concentration (duplicate assays). Small disks: ≥90%, larger disk: 59%, for both compounds. The tree was generated using the Kinome Render software, and the illustration reproduced courtesy of Cell Signaling Technology, Inc. (www.cellsignal.com) Chartier et al PeerJ 2013, 1:e126.
(§4) Results are expressed as the mean percentage of residual activity at 10 μM (Table 3) or 1 μM (Table 4). They are illustrated on FIGS. 3 and 4.
as §2

CDK5 = CDK5 (Homo sapiens (Human), UniProt Q00535); assay: ICKP protein kinase panel screening; type: biochemical; settings: duplicate assays, read-out: mean % residual activity
Description: as §3, §4, §2

JNK3 = JNK3 (Homo sapiens (Human), UniProt P53779); assay: ICKP protein kinase panel screening; type: biochemical; settings: duplicate assays, read-out: mean % residual activity
Description: as §3, §4, §2

JNK2 = JNK2 (Homo sapiens (Human), UniProt P45984); assay: ICKP protein kinase panel screening; type: biochemical; settings: duplicate assays, read-out: mean % residual activity
Description: as §3, §4, §2

CDK2-Cyclin A = CDK2-Cyclin A (Homo sapiens (Human), UniProt P24941); assay: ICKP protein kinase panel screening; type: biochemical; settings: duplicate assays, read-out: mean % residual activity
Description: as §3, §4, §2

ERK8 = ERK8 (Homo sapiens (Human), UniProt Q8TD08); assay: ICKP protein kinase panel screening; type: biochemical; settings: duplicate assays, read-out: mean % residual activity
Description: as §3, §4, §2

ERK2 = ERK2 (Homo sapiens (Human), UniProt P28482); assay: ICKP protein kinase panel screening; type: biochemical; settings: duplicate assays, read-out: mean % residual activity
Description: as §3, §4, §2

ERK5 = ERK5 (Homo sapiens (Human), UniProt Q13164); assay: ICKP protein kinase panel screening; type: biochemical; settings: duplicate assays, read-out: mean % residual activity
Description: as §3, §4, §2

p38d MAPK = p38d MAPK (Homo sapiens (Human), UniProt O15264); assay: ICKP protein kinase panel screening; type: biochemical; settings: duplicate assays, read-out: mean % residual activity
Description: as §3, §4, §2

p38g MAPK = p38g MAPK (Homo sapiens (Human), UniProt P53778); assay: ICKP protein kinase panel screening; type: biochemical; settings: duplicate assays, read-out: mean % residual activity
Description: as §3, §4, §2

ERK1 = ERK1 (Homo sapiens (Human), UniProt P27361); assay: ICKP protein kinase panel screening; type: biochemical; settings: duplicate assays, read-out: mean % residual activity
Description: as §3, §4, §2

[2] = tested on: panel of 13 protein kinases; assay: ICKP screening, whole panel of 13 protein kinases; type: biochemical, human; settings: 1 μM
Description: as §3, §4, §2

JNK1 = JNK1 (Homo sapiens (Human), UniProt P45983); assay: ICKP protein kinase panel screening; type: biochemical; settings: 1 μM, duplicate assays, read-out: mean % residual activity
Description: (§5) FIG. 3 illustrates the human kinome. Compound 69 was evaluated at the International Center For Kinase Profiling (ICKP, Dundee, Scotland) toward a panel of 50 protein kinases that provide a representative sampling of the human kinome. The results were expressed as the mean percentage of residual activity at 10 μM concentration (duplicate assays). Small disks: ≥65%, larger disk: 19%. The black square indicates the kinome region containing protein kinases evaluated in a second screening (FIG. 4, Table 4). The tree was generated using the Kinome Render software, and the illustration reproduced courtesy of Cell Signaling Technology, Inc. (www.cellsignal.com) Chartier et al PeerJ 2013, 1:e126.
as §3, §4, §1, §2

p38a MAPK = p38a MAPK (Homo sapiens (Human), UniProt Q16539); assay: ICKP protein kinase panel screening; type: biochemical; settings: 1 μM, duplicate assays, read-out: mean % residual activity
Description: as §5, §3, §4, §1, §2

Chain of p38α MAPK (Q16539 whole entry): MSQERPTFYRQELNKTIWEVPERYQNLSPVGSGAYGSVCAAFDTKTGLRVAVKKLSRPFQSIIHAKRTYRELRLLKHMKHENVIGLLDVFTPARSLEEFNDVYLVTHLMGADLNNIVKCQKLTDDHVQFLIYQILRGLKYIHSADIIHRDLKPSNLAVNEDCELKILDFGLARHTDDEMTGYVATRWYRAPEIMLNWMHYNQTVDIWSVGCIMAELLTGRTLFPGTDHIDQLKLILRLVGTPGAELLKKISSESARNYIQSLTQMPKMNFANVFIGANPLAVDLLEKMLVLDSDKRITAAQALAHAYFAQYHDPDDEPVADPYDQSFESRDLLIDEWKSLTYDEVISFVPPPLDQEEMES
Chain of JNK3 (P53779 whole entry): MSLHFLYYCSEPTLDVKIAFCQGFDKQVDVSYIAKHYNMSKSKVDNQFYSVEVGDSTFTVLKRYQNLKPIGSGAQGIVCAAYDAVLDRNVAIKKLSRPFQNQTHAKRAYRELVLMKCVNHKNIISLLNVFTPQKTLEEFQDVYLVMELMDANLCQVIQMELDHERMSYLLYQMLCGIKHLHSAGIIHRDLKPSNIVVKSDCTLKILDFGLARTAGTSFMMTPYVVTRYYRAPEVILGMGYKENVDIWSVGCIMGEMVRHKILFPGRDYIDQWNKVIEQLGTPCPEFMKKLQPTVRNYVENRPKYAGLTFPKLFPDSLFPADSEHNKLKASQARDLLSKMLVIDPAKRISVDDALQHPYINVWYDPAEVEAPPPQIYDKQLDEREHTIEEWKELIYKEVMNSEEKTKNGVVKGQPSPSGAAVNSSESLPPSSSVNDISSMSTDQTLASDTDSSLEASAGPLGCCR
Chain of p38b MAPK (Q15759 whole entry): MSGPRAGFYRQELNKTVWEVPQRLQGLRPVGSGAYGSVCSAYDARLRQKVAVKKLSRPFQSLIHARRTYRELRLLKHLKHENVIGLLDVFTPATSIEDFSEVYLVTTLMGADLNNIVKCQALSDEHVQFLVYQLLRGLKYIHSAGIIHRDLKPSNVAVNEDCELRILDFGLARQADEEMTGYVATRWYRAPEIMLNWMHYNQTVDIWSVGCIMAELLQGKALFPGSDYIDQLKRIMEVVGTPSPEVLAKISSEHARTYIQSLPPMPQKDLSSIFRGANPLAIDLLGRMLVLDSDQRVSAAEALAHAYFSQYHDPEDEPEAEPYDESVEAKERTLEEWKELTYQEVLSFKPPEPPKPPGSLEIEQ
Chain of ERK8 (Q8TD08 whole entry): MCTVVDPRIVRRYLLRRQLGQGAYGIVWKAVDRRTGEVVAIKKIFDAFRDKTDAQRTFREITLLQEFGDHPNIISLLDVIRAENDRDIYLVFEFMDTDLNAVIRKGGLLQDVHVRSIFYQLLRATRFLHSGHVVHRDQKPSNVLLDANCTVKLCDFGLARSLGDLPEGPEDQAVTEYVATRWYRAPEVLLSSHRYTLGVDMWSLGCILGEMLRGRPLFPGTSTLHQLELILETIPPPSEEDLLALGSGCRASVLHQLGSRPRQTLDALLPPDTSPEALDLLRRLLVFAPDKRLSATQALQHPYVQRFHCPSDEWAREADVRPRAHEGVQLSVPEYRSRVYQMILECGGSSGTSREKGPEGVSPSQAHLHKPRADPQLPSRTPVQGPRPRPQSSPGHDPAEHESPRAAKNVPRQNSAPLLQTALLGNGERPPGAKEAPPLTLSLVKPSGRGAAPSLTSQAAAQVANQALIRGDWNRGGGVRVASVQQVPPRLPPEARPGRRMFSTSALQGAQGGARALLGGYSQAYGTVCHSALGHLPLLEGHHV
Chain of ERK5 (Q13164 whole entry): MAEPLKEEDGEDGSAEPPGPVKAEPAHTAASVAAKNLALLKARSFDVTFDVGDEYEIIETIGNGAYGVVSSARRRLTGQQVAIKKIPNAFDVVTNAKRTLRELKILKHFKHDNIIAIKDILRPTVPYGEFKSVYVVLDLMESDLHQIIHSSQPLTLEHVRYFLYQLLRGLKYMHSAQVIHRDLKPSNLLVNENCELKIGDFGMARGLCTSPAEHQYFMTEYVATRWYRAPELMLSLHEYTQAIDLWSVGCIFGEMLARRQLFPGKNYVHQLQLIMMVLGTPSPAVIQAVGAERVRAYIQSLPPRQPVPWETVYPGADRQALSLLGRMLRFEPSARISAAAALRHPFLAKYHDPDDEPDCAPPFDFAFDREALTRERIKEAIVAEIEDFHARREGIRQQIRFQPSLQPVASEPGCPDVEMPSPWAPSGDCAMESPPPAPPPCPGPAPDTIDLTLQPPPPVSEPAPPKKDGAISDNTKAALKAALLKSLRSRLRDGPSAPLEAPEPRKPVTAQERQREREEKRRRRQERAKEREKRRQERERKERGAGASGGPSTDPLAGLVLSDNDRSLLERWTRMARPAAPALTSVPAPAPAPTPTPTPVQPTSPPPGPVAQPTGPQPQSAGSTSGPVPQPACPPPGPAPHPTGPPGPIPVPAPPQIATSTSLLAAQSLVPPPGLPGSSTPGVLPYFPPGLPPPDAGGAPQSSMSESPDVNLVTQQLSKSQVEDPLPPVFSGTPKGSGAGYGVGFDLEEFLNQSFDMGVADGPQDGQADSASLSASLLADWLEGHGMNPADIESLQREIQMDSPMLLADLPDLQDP
Chain of ERK1 (P27361 whole entry): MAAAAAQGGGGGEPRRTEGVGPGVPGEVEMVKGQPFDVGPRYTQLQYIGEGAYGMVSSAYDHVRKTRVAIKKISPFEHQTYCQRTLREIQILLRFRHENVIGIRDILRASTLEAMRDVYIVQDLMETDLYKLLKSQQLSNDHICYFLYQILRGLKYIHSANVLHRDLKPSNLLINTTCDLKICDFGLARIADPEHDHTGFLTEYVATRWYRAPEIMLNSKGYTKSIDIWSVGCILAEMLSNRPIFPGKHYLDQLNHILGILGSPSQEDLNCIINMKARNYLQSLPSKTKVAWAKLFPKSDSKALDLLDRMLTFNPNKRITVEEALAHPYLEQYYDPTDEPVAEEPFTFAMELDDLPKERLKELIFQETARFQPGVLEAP
Chain of ERK2 (P28482 whole entry): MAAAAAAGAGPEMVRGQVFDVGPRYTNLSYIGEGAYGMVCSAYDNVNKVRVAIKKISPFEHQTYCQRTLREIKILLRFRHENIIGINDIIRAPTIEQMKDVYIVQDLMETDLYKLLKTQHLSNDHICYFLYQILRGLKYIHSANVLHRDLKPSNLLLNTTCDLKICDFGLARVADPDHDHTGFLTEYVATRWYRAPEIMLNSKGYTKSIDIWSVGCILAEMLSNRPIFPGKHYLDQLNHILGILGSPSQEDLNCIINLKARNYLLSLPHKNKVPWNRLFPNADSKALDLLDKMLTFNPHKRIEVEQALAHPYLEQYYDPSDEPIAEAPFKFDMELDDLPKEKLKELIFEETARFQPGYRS
Chain of p38a MAPK (Q16539 whole entry): as the sequence (Q16539 whole entry) above
Chain of p38g MAPK (P53778 whole entry): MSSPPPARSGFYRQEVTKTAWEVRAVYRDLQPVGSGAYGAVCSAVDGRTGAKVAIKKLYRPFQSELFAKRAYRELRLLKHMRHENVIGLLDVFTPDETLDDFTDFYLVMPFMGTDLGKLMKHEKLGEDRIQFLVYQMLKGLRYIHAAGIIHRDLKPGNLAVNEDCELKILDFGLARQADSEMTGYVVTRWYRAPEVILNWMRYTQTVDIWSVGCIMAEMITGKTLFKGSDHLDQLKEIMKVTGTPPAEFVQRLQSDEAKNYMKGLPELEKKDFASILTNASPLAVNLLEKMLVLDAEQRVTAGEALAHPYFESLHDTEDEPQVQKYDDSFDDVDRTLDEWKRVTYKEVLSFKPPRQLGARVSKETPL
Chain of CDK5 (Q00535 whole entry): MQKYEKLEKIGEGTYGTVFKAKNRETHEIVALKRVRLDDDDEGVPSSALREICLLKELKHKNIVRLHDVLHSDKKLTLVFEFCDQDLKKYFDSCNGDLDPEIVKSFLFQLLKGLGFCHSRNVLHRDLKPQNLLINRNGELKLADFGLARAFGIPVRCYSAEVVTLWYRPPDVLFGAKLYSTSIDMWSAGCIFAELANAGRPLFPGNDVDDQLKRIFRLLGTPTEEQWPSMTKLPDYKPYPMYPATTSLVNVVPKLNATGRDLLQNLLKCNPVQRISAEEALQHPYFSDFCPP
Chain of CDK5 (Q15078 whole entry partner): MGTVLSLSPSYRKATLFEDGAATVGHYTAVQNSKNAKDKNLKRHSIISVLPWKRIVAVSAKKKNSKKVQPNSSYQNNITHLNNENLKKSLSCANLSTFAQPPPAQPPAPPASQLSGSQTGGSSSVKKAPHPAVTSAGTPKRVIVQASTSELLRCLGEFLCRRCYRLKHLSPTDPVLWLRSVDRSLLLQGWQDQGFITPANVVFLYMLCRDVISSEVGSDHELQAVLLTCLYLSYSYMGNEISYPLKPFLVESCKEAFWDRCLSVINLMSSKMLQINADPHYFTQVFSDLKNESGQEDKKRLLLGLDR
Chain of p38d MAPK (O15264 whole entry): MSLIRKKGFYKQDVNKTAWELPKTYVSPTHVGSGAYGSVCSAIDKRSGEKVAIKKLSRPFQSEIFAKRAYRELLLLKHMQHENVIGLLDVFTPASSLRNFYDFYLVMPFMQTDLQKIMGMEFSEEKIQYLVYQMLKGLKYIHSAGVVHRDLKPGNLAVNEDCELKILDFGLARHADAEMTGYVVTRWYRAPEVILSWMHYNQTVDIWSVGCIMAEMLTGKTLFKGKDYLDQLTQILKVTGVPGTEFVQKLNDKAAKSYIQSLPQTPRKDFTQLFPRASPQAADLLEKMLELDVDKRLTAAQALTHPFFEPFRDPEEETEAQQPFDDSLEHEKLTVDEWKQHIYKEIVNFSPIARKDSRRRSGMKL

IC50 (p38α MAPK; p38 alpha, read-out: Mean IC50): 3.03 µM | IC50 (p38α MAPK; read-out: IC50 toward p38α MAPK): 3 ± 0.1 µM | remaining activity at 1 µM (p38b MAPK): 112% | remaining activity at 1 µM (CDK5): 101% | remaining activity at 1 µM (JNK3): 98% | remaining activity at 1 µM (JNK2): 103% | remaining activity at 1 µM (CDK2-Cyclin A): 111% | remaining activity at 1 µM (ERK2): 108% | remaining activity at 1 µM (ERK5): 113% | remaining activity at 1 µM (p38d MAPK): 113% | remaining activity at 1 µM (p38g MAPK): 107% | remaining activity at 1 µM (ERK1): 122% | remaining activity at 1 µM (JNK1): 94% | remaining activity at 1 µM (p38a MAPK): 59%
Structure (SMILES): O=c1[nH]cc(Nc2ccccc2)cc1-c1cccc2[nH]ccc12 [Compound 67, 3-(1H-Indol-4-yl)-5-(phenylamino)pyridin-2(1H)-one]
prevention of inflammatory MA (allodynic score, 6-g von Frey filament) ([1]; 30 min before CFA): strong anti-allodynic activity; also recorded: most active | inhibition of inflammatory MA ([1]; 30 min before CFA injection): 98% | remaining activity at 1 µM (ERK8): 128% | mean percentage of residual activity, other kinases of the panel (small disks) ([2]; all kinases except p38α MAPK): ≥ 90% | selectivity for p38α MAPK over the other protein kinases incl. p38 isoforms ([2]; panel of 13 kinases): same selectivity profile; also recorded: selective p38α MAPK inhibitor
